Measurements reported in patent US20240209028A1, “CNP COMPOUNDS” (priority 2022, published 2024).
Starred links: 1 amine or outer side, 2 acyl side, 3 side chain; linkers in the order of their positions; H or OH if unused. Positions of bridges follow the written chain, without caps; N, C: chain ends. Residues, ends and D or L forms follow the SMILES beside them. *: point of attachment. C18 diacid = O=C(O)CCCCCCCCCCCCCCCCC(=O)*; γGlu = O=C(O)[C@H](CCC(=O)[*:2])N[*:1]; AEEA = NCCOCCOCC(=O)O

Target: T1, human natriuretic peptide receptor 2 (hNPR2) (Homo sapiens, UniProt P20594)
T1 construct: expressed in transfected cells; host or cells: HEK293 (ATCC CRL-1573), clone 35, co-transfected with pGloSensor-42F
T1 sequence (P20594 23-1047): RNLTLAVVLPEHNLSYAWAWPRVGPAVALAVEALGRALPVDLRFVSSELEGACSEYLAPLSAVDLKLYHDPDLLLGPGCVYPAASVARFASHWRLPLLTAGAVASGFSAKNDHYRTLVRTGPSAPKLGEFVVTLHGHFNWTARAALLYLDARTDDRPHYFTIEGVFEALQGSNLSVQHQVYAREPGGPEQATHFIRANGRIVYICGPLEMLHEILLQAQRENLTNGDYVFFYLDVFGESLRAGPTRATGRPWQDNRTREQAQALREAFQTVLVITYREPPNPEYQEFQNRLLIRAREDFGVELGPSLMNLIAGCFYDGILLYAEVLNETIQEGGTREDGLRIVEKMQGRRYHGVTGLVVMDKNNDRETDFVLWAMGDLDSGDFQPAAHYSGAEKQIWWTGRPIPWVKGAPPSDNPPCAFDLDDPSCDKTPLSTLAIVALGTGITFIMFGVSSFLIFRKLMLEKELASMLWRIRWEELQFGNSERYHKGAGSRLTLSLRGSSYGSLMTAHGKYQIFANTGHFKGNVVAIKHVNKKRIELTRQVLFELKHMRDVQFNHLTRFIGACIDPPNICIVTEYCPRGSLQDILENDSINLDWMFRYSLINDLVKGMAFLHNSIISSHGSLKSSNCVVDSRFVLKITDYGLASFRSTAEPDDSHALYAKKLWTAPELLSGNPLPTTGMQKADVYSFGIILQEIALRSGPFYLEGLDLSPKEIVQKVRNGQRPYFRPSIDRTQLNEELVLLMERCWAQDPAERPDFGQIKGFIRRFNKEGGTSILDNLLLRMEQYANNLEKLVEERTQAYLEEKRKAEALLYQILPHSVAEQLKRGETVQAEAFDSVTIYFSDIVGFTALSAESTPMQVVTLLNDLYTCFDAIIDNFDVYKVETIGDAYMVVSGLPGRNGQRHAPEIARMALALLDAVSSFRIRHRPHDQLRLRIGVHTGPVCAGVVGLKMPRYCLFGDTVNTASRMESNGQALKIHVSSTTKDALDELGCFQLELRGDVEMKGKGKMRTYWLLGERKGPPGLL
Assay: In vitro hNPR2 activity assay (cGMP GloSensor reporter, HEK293)
Assay type: cell-based
Conditions: for hNPR2 0% HSA. [EC50% rel CNP]: potency relative to CNP22 (0065); for EC50: 0% HSA, HEK293-hNPR2/GloSensor cells
In short: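 Potency is the EC50 from a four-parameter logistic fit, also expressed relative to the in-plate CNP22 control (×100), with at least two replicates. Compounds (ten concentrations, […], HSA-free diluent with 1% OVA, 0.01% Tween20) were incubated 30 min at 37 °C on HEK293 cells co-expressing hNPR2 and a GloSensor cGMP luciferase. Luminescence detected with Bright-Glo.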

## CC[C@H](C)[C@@H]1NC(=O)[C@H](CCCNC(=N)N)NC(=O)[C@H](CC(=O)O)NC(=O)[C@H](CC(C)C)NC(=O)[C@@H]2CCCN2C(=O)[C@H](CC(C)C)NC(=O)CNC(=O)[C@H](Cc2ccccc2)NC(=O)[C@@H](NC(=O)CNC(=O)[C@H](CO)NC(=O)[C@H](CO)NC(=O)[C@@H](NC(=O)CNC(=O)[C@H](CCCCN)NC(=O)[C@H](CCCCN)NC(=O)[C@H](CCC(N)=O)NC(=O)[C@H](C)NC(=O)CNC(=O)[C@H](Cc2c[nH]cn2)NC(=O)[C@H](CCC(=O)O)NC(=O)COCCOCCNC(=O)COCCOCCNC(=O)CC[C@H](NC(=O)CCCCCCCCCCCCCCCCC(=O)O)C(=O)O)C(C)C)CSSC[C@@H](C(=O)O)NC(=O)CNC(=O)[C@H](CC(C)C)NC(=O)CNC(=O)[C@H](CO)NC(=O)[C@H](CC(C)C)NC(=O)[C@H](CO)NC(=O)CNC1=O [compound 1311] ({C18 diacid-γGlu-AEEA-AEEA}-EHGAQKKGVSSGCFGLPLDRIGSLSGLGC-OH; disulfide 13-29; C-terminus assumed)
  hNPR2 0% HSA. [EC50% rel CNP]: 12.7%

## CC[C@H](C)[C@@H]1NC(=O)[C@H](CCCNC(=N)N)NC(=O)[C@H](CC(=O)O)NC(=O)[C@H](CC(C)C)NC(=O)[C@@H]2CCCN2C(=O)[C@H](CC(C)C)NC(=O)CNC(=O)[C@H](Cc2ccccc2)NC(=O)[C@@H](NC(=O)CNC(=O)[C@H](CO)NC(=O)[C@H](CO)NC(=O)[C@@H](NC(=O)CNC(=O)[C@@H](NC(=O)[C@H](CCCCN)NC(=O)[C@H](CCC(N)=O)NC(=O)[C@H](C)NC(=O)CNC(=O)[C@H](Cc2c[nH]cn2)NC(=O)[C@H](CCC(=O)O)NC(=O)COCCOCCNC(=O)COCCOCCNC(=O)CC[C@H](NC(=O)CCCCCCCCCCCCCCCCC(=O)O)C(=O)O)[C@@H](C)O)C(C)C)CSSC[C@@H](C(=O)O)NC(=O)CNC(=O)[C@H](CC(C)C)NC(=O)CNC(=O)[C@H](CO)NC(=O)[C@H](CC(C)C)NC(=O)[C@H](CO)NC(=O)CNC1=O [compound 1312] ({C18 diacid-γGlu-AEEA-AEEA}-EHGAQKTGVSSGCFGLPLDRIGSLSGLGC-OH; disulfide 13-29)
  hNPR2 0% HSA. [EC50% rel CNP]: 9.0%

## CC[C@H](C)[C@@H]1NC(=O)[C@H](CCCNC(=N)N)NC(=O)[C@H](CCC(=O)O)NC(=O)[C@H](CC(C)C)NC(=O)[C@H](CCCCN)NC(=O)[C@H](CC(C)C)NC(=O)CNC(=O)[C@H](Cc2ccccc2)NC(=O)[C@@H](NC(=O)CNC(=O)[C@H](CCCCN)NC(=O)[C@H](CO)NC(=O)[C@H](CC(C)C)NC(=O)CNC(=O)[C@H](Cc2c[nH]cn2)NC(=O)[C@H](Cc2c[nH]cn2)NC(=O)[C@H](CCC(N)=O)NC(=O)[C@H](C)NC(=O)CNC(=O)[C@H](Cc2c[nH]cn2)NC(=O)[C@H](Cc2ccc(O)cc2)NC(=O)COCCOCCNC(=O)COCCOCCNC(=O)CC[C@H](NC(=O)CCCCCCCCCCCCCCCCC(=O)O)C(=O)O)CSSC[C@@H](C(=O)O)NC(=O)CNC(=O)[C@H](CC(C)C)NC(=O)CNC(=O)[C@H](CO)NC(=O)[C@H](CC(C)C)NC(=O)[C@H](CO)NC(=O)CNC1=O [compound 1322] ({C18 diacid-γGlu-AEEA-AEEA}-YHGAQHHGLSKGCFGLKLERIGSLSGLGC-OH; disulfide 13-29; C-terminus assumed)
  EC50: 4.73 nM
  hNPR2 0% HSA. [EC50% rel CNP]: 1.9%

## CC[C@H](C)[C@@H]1NC(=O)[C@H](CCCNC(=N)N)NC(=O)[C@H](CCC(=O)O)NC(=O)[C@H](CC(C)C)NC(=O)[C@H](CCCCN)NC(=O)[C@H](CC(C)C)NC(=O)CNC(=O)[C@H](Cc2ccccc2)NC(=O)[C@@H](NC(=O)CNC(=O)[C@H](CCCCN)NC(=O)[C@H](CO)NC(=O)[C@H](CC(C)C)NC(=O)CNC(=O)[C@H](Cc2c[nH]cn2)NC(=O)[C@H](Cc2c[nH]cn2)NC(=O)[C@H](CCC(N)=O)NC(=O)[C@H](C)NC(=O)CNC(=O)[C@H](Cc2c[nH]cn2)NC(=O)[C@H](Cc2ccc(O)cc2)NC(=O)COCCOCCNC(=O)COCCOCCNC(=O)CC[C@H](NC(=O)CC[C@H](NC(=O)CCCCCCCCCCCCCCCCC(=O)O)C(=O)O)C(=O)O)CSSC[C@@H](C(=O)O)NC(=O)CNC(=O)[C@H](CC(C)C)NC(=O)CNC(=O)[C@H](CO)NC(=O)[C@H](CC(C)C)NC(=O)[C@H](CO)NC(=O)CNC1=O [compound 1323] ({C18 diacid-γGlu-γGlu-AEEA-AEEA}-YHGAQHHGLSKGCFGLKLERIGSLSGLGC-OH; disulfide 13-29; C-terminus assumed)
  EC50: 11.2 nM
  hNPR2 0% HSA. [EC50% rel CNP]: 0.8%

## CC[C@H](C)[C@@H]1NC(=O)[C@H](CCCNC(=N)N)NC(=O)[C@H](CCC(=O)O)NC(=O)[C@H](CC(C)C)NC(=O)[C@H](CCCCN)NC(=O)[C@H](CC(C)C)NC(=O)CNC(=O)[C@H](Cc2ccccc2)NC(=O)[C@@H](NC(=O)CNC(=O)[C@H](CCC(N)=O)NC(=O)[C@H](CO)NC(=O)[C@H](CC(C)C)NC(=O)CNC(=O)[C@H](Cc2c[nH]cn2)NC(=O)[C@H](Cc2c[nH]cn2)NC(=O)[C@H](CCC(N)=O)NC(=O)[C@H](C)NC(=O)CNC(=O)[C@H](CCCCN)NC(=O)[C@H](Cc2ccc(O)cc2)NC(=O)COCCOCCNC(=O)COCCOCCNC(=O)CC[C@H](NC(=O)CC[C@H](NC(=O)CCCCCCCCCCCCCCCCC(=O)O)C(=O)O)C(=O)O)CSSC[C@@H](C(=O)O)NC(=O)CNC(=O)[C@H](CC(C)C)NC(=O)CNC(=O)[C@H](CO)NC(=O)[C@H](CC(C)C)NC(=O)[C@H](CO)NC(=O)CNC1=O [compound 1324] ({C18 diacid-γGlu-γGlu-AEEA-AEEA}-YKGAQHHGLSQGCFGLKLERIGSLSGLGC-OH; disulfide 13-29)
  EC50: 5.51 nM
  hNPR2 0% HSA. [EC50% rel CNP]: 1.6%

## CC[C@H](C)[C@@H]1NC(=O)[C@H](CCCNC(=N)N)NC(=O)[C@H](CCC(=O)O)NC(=O)[C@H](CC(C)C)NC(=O)[C@@H]2CCCN2C(=O)[C@H](CC(C)C)NC(=O)CNC(=O)[C@H](Cc2ccccc2)NC(=O)[C@@H](NC(=O)CNC(=O)[C@H](CO)NC(=O)[C@H](CO)NC(=O)[C@H](CC(C)C)NC(=O)CNC(=O)[C@H](CCCCN)NC(=O)[C@H](CCCCN)NC(=O)[C@H](CCC(N)=O)NC(=O)[C@H](C)NC(=O)CNC(=O)[C@H](CCC(=O)O)NC(=O)[C@H](Cc2ccc(O)cc2)NC(=O)COCCOCCNC(=O)COCCOCCNC(=O)CC[C@H](NC(=O)CCCCCCCCCCCCCCCCC(=O)O)C(=O)O)CSSC[C@@H](C(=O)O)NC(=O)CNC(=O)[C@H](CC(C)C)NC(=O)CNC(=O)[C@H](CO)NC(=O)[C@H](CC(C)C)NC(=O)[C@H](CO)NC(=O)CNC1=O [compound 1338] ({C18 diacid-γGlu-AEEA-AEEA}-YEGAQKKGLSSGCFGLPLERIGSLSGLGC-OH; disulfide 13-29)
  EC50: 6.77 nM
  hNPR2 0% HSA. [EC50% rel CNP]: 1.3%

## CC[C@H](C)[C@@H]1NC(=O)[C@H](CCCNC(=N)N)NC(=O)[C@H](CC(=O)O)NC(=O)[C@H](CC(C)C)NC(=O)[C@@H]2CCCN2C(=O)[C@H](CC(C)C)NC(=O)CNC(=O)[C@H](Cc2ccccc2)NC(=O)[C@@H](NC(=O)CNC(=O)[C@H](CO)NC(=O)[C@H](CO)NC(=O)[C@H](CC(C)C)NC(=O)CNC(=O)[C@H](CCCCN)NC(=O)[C@H](CCCCN)NC(=O)[C@H](CCC(N)=O)NC(=O)[C@H](C)NC(=O)CNC(=O)[C@H](CCC(=O)O)NC(=O)COCCOCCNC(=O)COCCOCCNC(=O)CC[C@H](NC(=O)CCCCCCCCCCCCCCCCC(=O)O)C(=O)O)CSSC[C@@H](C(=O)O)NC(=O)CNC(=O)[C@H](CC(C)C)NC(=O)CNC(=O)[C@H](CO)NC(=O)[C@H](CC(C)C)NC(=O)[C@H](CO)NC(=O)CNC1=O [compound 1339] ({C18 diacid-γGlu-AEEA-AEEA}-EGAQKKGLSSGCFGLPLDRIGSLSGLGC-OH; disulfide 12-28)
  hNPR2 0% HSA. [EC50% rel CNP]: 15.5%
